The values that follow come from ChEMBL document CHEMBL1147941, “Novel morpholin-3-one derivatives induced apoptosis and elevated the level of P53 and Fas in A549 lung cancer cells” (Bioorg Med Chem, 2007).

Structures are written as SMILES. ≈ marks a conversion by molar mass, not a printed value. Calls of active or inactive are those of the source. No cut-off for these calls is given here.

The IC50 is the point on the concentration scale where inhibition reaches its midpoint. Read a low IC50 as higher potency.

Assay [1] concerns A549. The assay is described as follows: Antiproliferative activity against human A549 cells after 48 hrs by MTT assay. Format: functional, cell-based. As to conditions: A549, 48 h.
Assay [2] has as its system A549. The experiment in a line: Increase in Fas protein level in A549 cells at 40 ug/ml after 48 hrs relative to control. Format: functional, Homo sapiens.
Assay [3] deals with A549. The assay is described as follows: Cell cycle arrest in A549 cells assessed as accumulation at G2/M phase at 40 ug/ml after 48 hrs. The format is functional, Homo sapiens.
The subject of assay [4] is A549. The experiment in a line: Cell cycle arrest in A549 cells assessed as accumulation at G1 phase at 40 ug/ml after 48 hrs. The format is functional, Homo sapiens.
The subject of assay [5] is A549. The experiment in a line: Effect on morphology in A549 cells assessed as formation of apoptotic bodies at 40 ug/ml after 48 hrs. The format is functional, cell-based. As to conditions: Homo sapiens.
Assay [6] relates to A549. The experiment in a line: Increase in P53 protein level in A549 cells at 40 ug/ml after 48 hrs relative to control. The format is functional, Homo sapiens.
The subject of assay [7] is A549. The experiment in a line: Induction of apoptosis in A549 cells assessed as DNA fragmentation at 40 ug/ml after 48 hrs by acridine orange assay. Format: functional, cell-based. The settings on record: Homo sapiens.
In assay [8] the test system is A549. The assay is described as follows: Cell cycle arrest in A549 cells assessed as accumulation at S phase at 40 ug/ml after 48 hrs. The format is functional, Homo sapiens.

In turn, `O=C1COC(COc2ccc([N+](=O)[O-])cc2)CN1c1ccccc1` (stereo not given) gave an IC50 in assay [1] of 16.6 µg/mL (≈ 50.6 µM). In addition, the Activity in assay [2] came to 40.97%; in assay [3] it was 18.64%; in assay [4], 73.3%; in assay [6], 33.73%. Also, the outcome in assay [5] and in assay [7] was Active.
With `O=C1COC(COc2ccc([N+](=O)[O-])cc2)CN1c1ccc(Cl)cc1` (stereo not given), the half-maximal inhibitory concentration (IC50) in assay [1] was 38 µg/mL (≈ 105 µM). The Activity amounted to 14.82% in assay [8]; 21.53% in assay [2]; 21.93% in assay [3]; 63.25% in assay [4]; 23.98% in assay [6]. Also, the outcome in assay [7] was Active.
`COc1ccc(N2CC(COc3ccc(Cl)cc3)OCC2=O)cc1` (stereo not given): it took 22.9 µg/mL (≈ 65.9 µM) to reach half-maximal inhibition in assay [1] (IC50). Moreover, the Activity in assay [8] was 10.99%; in assay [2], 23.45%; in assay [4], 79.44%; in assay [6] it was 22.41%. Moreover, in assay [7], the outcome was Active.
